Assays:
[1] = system: human prostate cancer cells (LNCaP); conditions: 2.5-160 μM, incubation 48 hours, CCK8; compared with Abiraterone AA
Method: (§1) Cell survival rate tested by CCK8 method: after the solution was pipetted from the wells, each well was added with 10 μl of CCK8 reagent and 100 μl of serum-free medium for further culture for 4 hours. An absorbance value of each well at 450 nm was determined using a microplate reader.

[2] = system: human prostate cancer cells (DU145); conditions: 2.5-160 μM, incubation 48 hours, CCK8; compared with Abiraterone AA
Method: as §1

[3] = Pharmacokinetic study in rats (plasma, LC-MS/MS); type: in vivo, SD rats
Method: Pharmacokinetics experiments of the polyaminopolycarboxylic acid modified abiraterone derivative AA-DTPA prepared in Example 2 in rats includes the following steps:
A total of eight healthy male SD rats weighing 220+/−20 g were randomly divided into 2 groups, with 4 rats in each group; one group was administered with AA-DTPA from tail veins of the rats at a dose of 8 mg/kg in a volume of 0.2 ml/200 g rat; the other group was administrated intragastrically with AA at a dose of 30 mg/kg in a volume of 0.2 ml/200 g rat; blood samples were collected at time points of 5, 15, and 30 minutes, as well as 1, 2, 4, 6, 12, and 24 hours before and after administration for both groups; and at each time point, 0.5 ml of blood was sampled from canthi, and was placed in a heparinized plastic centrifuge tube, centrifugation was performed at 3000 r/min for 10 minutes, and plasma was separated therefrom.
50 μl of rat plasma samples+5 μl of methanol ice (1:1, v/v)+150 μl of precipitant were taken, and fully whirled and shaken for 3 minutes, a mixture was then centrifuged at 4° and 12000 r/min for 10 minutes, and a supernatant was pipetted, and analyzed with sample injection by LC-MS/MS (liquid chromatography-tandem mass spectrometry).

[4] = Organ indexes and body weights of prostate cancer LNCaP tumor-bearing mice; type: in vivo, nude mice; conditions: 28 days; for body weights of the mice: vs normal group
Method: A normal group (Normal) was not given any treatment; a model group (NS) received a daily injection of an equal volume of physiological saline; an AA group (150 mg/kg/d p.o.) was administrated intragastrically, once daily; and an AA-DTPA group (35 mg/kg/w i.v.) and an AA-DTPA group (52.5 mg/kg/w i.v.) were administrated from tail veins once weekly.
Diameters of the xenograft tumors of the nude mice were measured with vernier calipers, and the anti-tumor effect of the Abiraterone was dynamically observed.
Two days following the last administration, the mice were sacrificed, and hearts, livers, spleens, lungs, kidneys, and testes were dissected off and weighed, and organ indexes [organ index=organ weight/(body weight−tumor weight), unit: mg/g] were calculated.

[5] = Toxicity study: blood routine, blood biochemistry and tissue pathology of healthy ICR male mice; type: in vivo; conditions: 28 days
Method: The influence of the polyaminopolycarboxylic acid modified Abiraterone derivative AA-DTPA prepared in Example 5 on blood routine, blood biochemistry and pathological tissues of ICR healthy male mice following administration for 28 days includes the following steps:
20 ICR mice were selected, and were divided into 4 groups (NS group, positive control group AA 150 mg/kg/d p.o., and experimental groups AA-DTPA 35 mg/kg/w and 52.5 mg/kg/w i.v.), each of which had 5 mice.
The mice were administrated intragastrically once daily, and administrated intravenously, […], and blood was sampled for submission following the treatment for 28 days; all mice were sacrificed by cervical dislocation, hearts, livers, spleens, lungs, kidneys, and testes were dissected and collected, and fixed with 10% formaldehyde; and after being embedded by paraffin, the organs were sectioned, and histopathological examination was performed after HE staining (see FIG. 13 for results from blood routine experiments, FIG. 14 for results from blood biochemistry experiments, and FIG. 15 for results from histopathological experiments).

[6] = system: human prostate cancer LNCaP derived xenograft tumors; experiment: Inhibition of growth of human prostate cancer LNCaP derived xenograft tumors of nude mice; conditions: for tumor inhibition effect compared with the AA group: 28 days; for tumor growth: treatment for 28 days
[7] = intravenous injection (tail vein) 8 mg/kg
[8] = healthy male ICR mice, 35 and 52.5 mg/kg/w i.v. vs AA 150 mg/kg/d p.o.
[9] = healthy male ICR mice, 35 and 52.5 mg/kg/w i.v.
[10] = intragastric administration 30 mg/kg

## CC12CCC(OC(=O)CN(CCN(CCN(CCN(CC(=O)O)CC(=O)O)CC(=O)O)CC(=O)O)CC(=O)O)CC1=CCC1C2CCC2(C)C(c3cccnc3)=CCC12 (stereo not drawn) [AA-TTHA, triethylenetetramine hexaacetic acid modified Abiraterone derivative]
[1]
  in vitro anti-tumor effect (LNCaP), cell survival rate: superior to the in vitro anti-tumor effect of Abiraterone AA
[2]
  in vitro anti-tumor effect (DU145), cell survival rate: superior to the in vitro anti-tumor effect of Abiraterone AA

## CC12CCC(OC(=O)CN(CCN(CCN(CC(=O)O)CC(=O)O)CC(=O)O)CC(=O)O)CC1=CCC1C2CCC2(C)C(c3cccnc3)=CCC12 (stereo not drawn) [AA-DTPA, diethylenetriaminepentaacetic acid modified Abiraterone derivative]
[3]; [7]
  average clearance rate: 8.55 mL/min/kg
  half-life period: 0.26 h
  plasma concentration-time profile: double exponential decay
[4]; 35 mg/kg i.v. weekly
  body weights of the mice: equivalent to those of the mice in the normal group
[4]; 52.5 mg/kg i.v. weekly
  body weights of the mice: equivalent to those of the mice in the normal group
[4]; AA-DTPA treatment group (35 and 52.5 mg/kg/w i.v.)
  indexes of hearts, livers, lungs, kidneys and testes vs model group: No significant difference
[4]; LNCaP tumor-bearing mice
  organ toxicity compared with AA under the treatment dose: lower than that of the AA
[1]
  in vitro anti-tumor effect (LNCaP), cell survival rate: superior to the in vitro anti-tumor effect of Abiraterone AA
[2]
  in vitro anti-tumor effect (DU145), cell survival rate: superior to the in vitro anti-tumor effect of Abiraterone AA
[5]; 52.5 mg/kg/w i.v., HE staining
  histopathology of lungs: mild pathological changes
[5]; 35 and 52.5 mg/kg/w i.v.
  organ toxicity (histopathology): no obvious organ toxicity
[5]; 35 and 52.5 mg/kg/w i.v., HE staining
  histopathology of hearts, spleens, kidneys and testes: no abnormal changes
[5]; [8]
  effect on alanine aminotransferase and aspartate aminotransferase compared with AA group: less effect
  effect on number of lymphocytes and monocytes compared with AA group: less effect
[5]; [9]
  effect on blood biochemistry: less effect
  effect on blood routine: less effect
[5]; healthy male ICR mice
  toxicity compared with AA: less toxic than that of the AA
[6]; 35 mg/kg/w i.v. vs AA 150 mg/kg/d p.o.
  tumor inhibition effect compared with the AA group: better tumor inhibition effects
[6]; 35 mg/kg/w i.v.
  tumor growth: significantly inhibited
[6]; 52.5 mg/kg/w i.v. vs AA 150 mg/kg/d p.o.
  tumor inhibition effect compared with the AA group: better tumor inhibition effects
[6]; 52.5 mg/kg/w i.v.
  tumor growth: significantly inhibited

## C[C@]12CC[C@H](O)CC1=CC[C@@H]1[C@@H]2CC[C@]2(C)C(c3cccnc3)=CC[C@@H]12 [AA, Abiraterone]
[3]; [10]
  absorption in vivo: absorbed slowly
  peak value of AA concentration in blood plasma: 15.28 ± 1.24 ng/mL
  time to peak plasma concentration: 0.5 h
[3]; male, SD, rat, plasma, po, intragastric administration 30 mg/kg, read-out: half-life period (converted)
  half-life: 8.46 h
[4]; 150 mg/kg/d p.o.
  heart indexes: slight decline
  indexes of livers, lungs and kidneys vs model group: no significant difference
[4]; 150 mg/kg/d p.o., compared with normal group and model group
  testis indexes: testicular atrophy and a sharp decrease in testis indexes
[5]; 150 mg/kg/d p.o., HE staining
  histopathology of hearts, spleens, kidneys and testes: no abnormal changes
  histopathology of livers: mild pathological changes
  histopathology of lungs: mild pathological changes
